What all share (type): biochemical
Assay [1] concerns Candida rugosa lipase 4 chimera Trx-LIP4/lid2 (lid region residues 63-94 of LIP4 exchanged with that of LIP2; thioredoxin fusion). Briefly: Kinetic parameters of hydrolysis of cholesteryl linoleate by Trx-LIP4/lid2. The settings on record: 37° C., pH 7.0; Trx-LIP4/lid2 86 nM; average of three independent experiments. From the text:
(§1) Construction of expression vectors The E. coli expression vectors pET23a-LIP4-S19 and pET23a-trx-LIP4-S19 were constructed as described in Tang et al. (2000) Protein Exp. Purif. 20: 308-313. Open-reading frames of LIP1, LIP2, LIP3, and LIP5 without the leader sequence were obtained by reverse transcription-polymerase chain reaction (RT-PCR). See Longhi et al. (1992) Biochim. Biophy. […] The chimeric DNA sequences were constructed by replacing the SphI(184)-BstXI(304) restriction DNA fragment of LIP4 with the corresponding fragments of LIP1, LIP2, LIP3, or LIP5, respectively. The resulting sequences encode mature chimeric C. rugosa lipases, denoted as TrX-LIP4/lid1, TrX-LIP4/lid2, TrX-LIP4/lid3, and TrX-LIP4/lid5, and were confirmed by DNA sequencing.
(§2) Preparation of recombinant LIP4 from E. coli. E. coli strain AD494(DE3) (Novagen, Milwaukee, Wis.) harboring recombinant plasmid was grown overnight at 37° C. in Luria-Bertani (LB) broth supplemented with 50 μg/mL ampicillin and 15 μg/mL kanamycin. The cells were then diluted 20-fold into fresh medium and incubated with shaking at 25° C. After adding IPTG to give a final concentration of 0.05 mM, the cells were incubated at 10° C. until OD600 reached 1.0.
(§3) Purification of recombinant LIP4. After induction, the AD494(DE3) transformants were harvested by centrifugation at 4000 g and 4° C. for 10 min. […]

The test system of assay [2] is Candida rugosa lipase 4 chimera Trx-LIP4/lid3 (lid region residues 63-94 of LIP4 exchanged with that of LIP3; thioredoxin fusion). Briefly: Kinetic parameters of hydrolysis of cholesteryl linoleate by Trx-LIP4/lid3. As to conditions: 37° C., pH 7.0; Trx-LIP4/lid3 58 nM; average of three independent experiments.
Excerpt: as §1, §2, §3

For assay [3], the target named is Candida rugosa lipase 4 (LIP4), native, recombinant (Diutina rugosa, UniProt P32948). In words: Kinetic parameters of hydrolysis of cholesteryl linoleate by LIP4. As to conditions: 37° C., pH 7.0; LIP4 39 nM; average of three independent experiments.
Excerpt: as §1, §2, §3

The test system of assay [4] is Candida rugosa lipase 4 chimera Trx-LIP4/lid1 (lid region residues 63-94 of LIP4 exchanged with that of LIP1; thioredoxin fusion). Briefly: Kinetic parameters of hydrolysis of cholesteryl linoleate by Trx-LIP4/lid1. As to conditions: 37° C., pH 7.0; Trx-LIP4/lid1 11 nM; average of three independent experiments.
Excerpt: as §1, §2, §3

The subject of assay [5] is Candida rugosa lipase 4 chimera Trx-LIP4/lid5 (lid region residues 63-94 of LIP4 exchanged with that of LIP5; thioredoxin fusion). Briefly: Kinetic parameters of hydrolysis of cholesteryl linoleate by Trx-LIP4/lid5. The settings on record: 37° C., pH 7.0; Trx-LIP4/lid5 66 nM; average of three independent experiments.
Excerpt: as §1, §2, §3

From patent US7655453B2, “Recombinant Candida rugosa lipases” (Academia Sinica, priority 2001, dated 2010) come the findings set out here.

Chain of Candida rugosa lipase 4 (LIP4), native, recombinant (P32948 3-549, looked up, natural form): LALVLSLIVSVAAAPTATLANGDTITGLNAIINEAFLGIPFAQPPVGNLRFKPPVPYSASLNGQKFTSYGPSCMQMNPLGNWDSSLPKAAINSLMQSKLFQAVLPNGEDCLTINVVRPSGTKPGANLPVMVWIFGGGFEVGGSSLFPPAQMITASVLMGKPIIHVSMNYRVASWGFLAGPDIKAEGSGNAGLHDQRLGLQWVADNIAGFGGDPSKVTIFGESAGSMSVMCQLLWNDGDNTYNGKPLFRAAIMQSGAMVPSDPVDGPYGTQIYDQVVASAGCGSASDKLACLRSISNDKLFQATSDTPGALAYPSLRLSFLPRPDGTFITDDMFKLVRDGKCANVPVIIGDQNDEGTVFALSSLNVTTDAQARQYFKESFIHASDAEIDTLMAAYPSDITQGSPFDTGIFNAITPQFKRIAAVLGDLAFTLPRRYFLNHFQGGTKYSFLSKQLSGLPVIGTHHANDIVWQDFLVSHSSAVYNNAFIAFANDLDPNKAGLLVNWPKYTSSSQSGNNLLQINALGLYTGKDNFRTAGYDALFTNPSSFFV

The Km is the concentration of substrate that gives half-maximal velocity. For the compound `CCCCC/C=C\C/C=C\CCCCCCCC(=O)O[C@H]1CC[C@@]2(C)C(=CC[C@H]3[C@@H]4CC[C@H]([C@H](C)CCCC(C)C)[C@@]4(C)CC[C@@H]32)C1` [cholesteryl linoleate], the Michaelis constant (Km) in assay [1] came to 74 ± 3 µM; in assay [2], 46 ± 1 µM; in assay [3] it was 41 ± 5 µM; in assay [4], 103 ± 5 µM; in assay [5], 34 ± 1 µM. Moreover, the Vmax is reported as 1851 ± 24 10^−3 μmol/min/mg in assay [1], 231 ± 14 10^−3 μmol/min/mg in assay [2], 28 ± 1 10^−3 μmol/min/mg in assay [4] and 70 ± 4.8 10^−3 μmol/min/mg in assay [5].
